ChEMBL document CHEMBL1122560, “Adrenal medulla imaging agents: a structure-distribution relationship study of radiolabeled aralkylguanidines” (J Med Chem, 1984)

Assay: Ratio of the concentration levels determined for the adrenal medulla to the liver after 72 hr; [Adrenal Medulla] / [liver]
Assay type: ADME, tissue-based

Compared with N=C(N)NCc1ccc(I)c(I)c1, N=C(N)NCc1cccc(I)c1 [IOBENGUANE] is higher in Ratio: 115 for the first, 720 for the second.

First: N=C(N)Nc1cccc(I)c1
Second: N=C(N)NCCc1cccc(I)c1
The Ratio of the first is lower: 45 for the first, 190 for the second.

Compared with N=C(N)NCc1ccccc1I, N=C(N)NCc1ccccc1 is higher in Ratio: 130 for the first, 2700 for the second.

First: N=C(N)NCc1cc(I)cc(I)c1
Second: N=C(N)NCc1ccc(I)cc1
The Ratio of the first is lower: 5.2 for the first, 545 for the second.

First: N=C(N)NCCc1ccc(I)cc1
Second: CC(N=C(N)N)c1ccc(I)cc1 (racemic)
The Ratio of the first is higher: 200 for the first, 190 for the second.

Going from CC(N=C(N)N)c1cccc(I)c1 (racemic) to N=C(N)N [GUANIDINE], the Ratio falls from 430 to 1.4.

Going from CC(N=C(N)N)c1cccc(I)c1 (single isomer, unassigned; (-)) to N=C(N)NCCN1CCCCCCC1 [GUANETHIDINE], the Ratio falls from 300 to 70.

Compound CC(N=C(N)N)c1cccc(I)c1 (stereo in doubt; 8b(+)) has a Ratio of 390.
